The test system of series [1] is Notch-induced HES1 transcription in U937 cells. Description: Ligand (Delta-like 4)-mediated HES1 activation in U937 cells. The settings on record: recombinant DL-4 Notch ligand.
The test system of series [2] is HES1, HEY1 and DTX1 expression in U937 cells. Description: Notch-target gene expression in U937 cells without Notch activation (Q-RT-PCR). The settings on record: TCP 1 mM, S2101 30 μM.
The test system of series [3] is ICN1-induced activation of p6XCBS-luc. Briefly: Notch-responsive reporter assay (p6XCBS-luc) in HeLa cells. In kind it is cell-based. As for the experimental part:
HeLa cells were co-transfected with 1 μg of a Notch-responsive firefly luciferase reporter containing 6 CSL-binding sites (p6XCBS-luc), 100 ng of TK-Renilla-luciferase vector (transfection control) and various amount (0.1-0.3-1 μg) of the MigR1-ICN1 expression vector. Transfections were performed in 6-wells plates using JetPEI reagent (Polyplus) according to manufacturer's instruction. Firefly luciferase activity was measured 24 hours post-transfection and normalized to Renilla luciferase expression. The values in the figures are Relative Luciferase Units (RLU) represented as fold induction over the luciferase activity measured in the absence of ICN1 (cells transfected with p6XCBS-luc and an empty vector).

Series [4] deals with Notch-activation complex (ICN1-CSL-MAML1). Briefly: Immunopurification / coimmunoprecipitation from SupT1 nuclear extracts (western blot). The arrangement: species or system human. As for the experimental part: After two step affinity chromatography, protein complexes containing both tagged-proteins were peptide eluted and analyzed by western blot. For endogenous protein immunoprecipitations, nuclear extracts (500 μg-1 mg) were incubated with antibodies (1-2 μg) for 4 hr, followed by addition of 10 μL protein G Sepharose beads (Fast flow, Sigma) for 45 min before washing five times with 800 μL of buffer B015 in spin columns (Pierce).
Cells were lysed in lysis buffer (50 mM Tris-HCl, 120 mM NaCl, 5 mM EDTA, 0.5% NP-40 and PMSF) and briefly sonicated. Cell lysates and immunoprecipitates were boiled in SDS sample buffer and resolved on a 7% SDS-PAGE gel (Biorad). Proteins were liquid-transferred (Biorad) to nitrocellulose membrane in transfer buffer (20% methanol, 25 mM Tris, 192 mM Glycine, 0.037% SDS) during 90 min at 100V.

Series [5] concerns Notch-target genes in pre-T cells. Description: ChIP in T-cell precursors from in vitro T-cell differentiation. It counts as cell-based, human. The settings on record: GSI 5 μM, 2 days. As to the method:
For ChIP experiments, 6×10^7 cells were cross-linked for 10 min with 1% formaldehyde (sigma) at room temperature. The cross-linking reaction was stopped by adding glycine to a final concentration of 0.125 M for 10 min at room temperature. Cells were washed twice with cold PBS and incubated on ice for 7 min in 2 mL of buffer containing 15 mM Tris-HCl (pH 7.4), 0.3 M sucrose (sigma), 60 mM KCl, 15 mM NaCl, 5 mM MgCl2, 0.1 mM EGTA and 0.1% NP-40. Each cell suspension was then layered over 8 mL sucrose cushion (15 mM Tris-HCl, 1.2 M sucrose, 60 mM KCl, 15 mM NaCl, 5 mM MgCl2 and 0.1 mM EGTA) and centrifuged at 10.000 g for 20 min at 4° C. Nuclear pellet was lysed with 1 mL lysis buffer (50 mM Tris-HCl pH 8, 10 mM EDTA, 1% SDS) complemented with Protease Inhibitor Cocktail (Roche). […] DNA was extracted by phenol-chloroform, quantified using nanodrop and run on a 1% agarose gel to confirm DNA fragment size. […]
CD34+ cells from human umbilical cord blood samples were sorted (Stemcell technologies) (≧95% purity) and cultured on OP9-DL1 stromal cells in αMEM media containing FLT3L (5 ng/ml), and IL7 (5 ng/ml) for 16 days. At day 16, most progenitors (˜90%) were engaged to the T-cell lineage (pre-T cells) as determined by the expression of CD5 and CD1a. pre-T-cells were cultured for 2 additional days on OP9-DL1 cells in presence or absence of GSI (5 μM).

Series [6] relates to ICN1-binding sites of Notch-target genes. Briefly: Chromatin immunoprecipitation (ChIP) in SupT1 cells. It counts as cell-based, human. As to the method: For ChIP experiments, 6×10^7 cells were cross-linked for 10 min with 1% formaldehyde (sigma) at room temperature. The cross-linking reaction was stopped by adding glycine to a final concentration of 0.125 M for 10 min at room temperature. Cells were washed twice with cold PBS and incubated on ice for 7 min in 2 mL of buffer containing 15 mM Tris-HCl (pH 7.4), 0.3 M sucrose (sigma), 60 mM KCl, 15 mM NaCl, 5 mM MgCl2, 0.1 mM EGTA and 0.1% NP-40. Each cell suspension was then layered over 8 mL sucrose cushion (15 mM Tris-HCl, 1.2 M sucrose, 60 mM KCl, 15 mM NaCl, 5 mM MgCl2 and 0.1 mM EGTA) and centrifuged at 10.000 g for 20 min at 4° C. Nuclear pellet was lysed with 1 mL lysis buffer (50 mM Tris-HCl pH 8, 10 mM EDTA, 1% SDS) complemented with Protease Inhibitor Cocktail (Roche). Chromatin was sonicated to generate DNA-fragments of approximately 300 to 500 bp in an ultra sonicator water bath (Bioruptor, Diagenode) using ten cycles of 30 s/on and 30 s/off. After centrifugation at 13.000 g for 20 min, an aliquot of sonicated DNA was reverse-crosslinked by addition of 250 mM NaCl and incubation at 65° C. for 6 h. DNA was extracted by phenol-chloroform, quantified using nanodrop and run on a 1% agarose gel to confirm DNA fragment size. The antibodies were pre-bound to Invitogen Dynal magnetic beads (Protein A or G beads) in PBS containing BSA (5 mg/mL) and chromatin was pre-cleared with beads for 4 h at 4° C. Immunoprecipitation was performed using 20 μg of chromatin and 2-3 μg of antibody coupled to 15 μL of beads in ChIP buffer (20 mM Tri-HCl pH 8, 150 mM NaCl, 2 mM EDTA, and 1% Triton X-100) complemented with Protease Inhibitor Cocktail. After overnight incubation at 4° C., beads were washed 4 times with wash buffer 1 (20 mM Tri-HCl pH 8, 150 mM NaCl, 2 mM EDTA, 1% Triton X-100 and 0.1% SDS) and 4 times with wash buffer 2 (20 mM Tri-HCl pH 8, 500 mM NaCl, 2 mM EDTA, 1% Triton X-100 and 0.1% SDS) using the DynaMag-2 magnet (Invitogen). Elution of immunoprecipitated DNA was performed in buffer containing 1% SDS and 100 mM NaHCO3. Crosslinking was reversed by incubation at 65° C. and proteins were degraded by addition of proteinase K (Sigma). Eluted DNA and 10% of input DNA were purified using phenol-chloroform extraction followed by isopropanol precipitation or using QIAquick PCR purification (Qiagen), according to the manufacturer instructions. Resultant DNA was dissolved in 60 μL of water containing 10 mM Tris-HCl pH 8. […] PCR measurements were performed in duplicate.

Series [7] has as its system Notch-target genes in T-ALL cells. Description: Notch-target gene expression in T-ALL cell lines (Q-RT-PCR).
The test system of another series is T-ALL cell lines. Description: Flow-cytometric cell cycle analysis of T-ALL cell lines. It counts as cell-based, human. The following applies: shRNA knockdown. As to the method: (§1) The following antibodies were used for flow cytometry: CD127-PE clone R34.34 and the IgG1-PE (from Beckman Coulter). Flow cytometry was performed on a BD FACSCalibur or MACSQUANT cytometer (Miltenyi). For cell proliferation assays, cells were plated at 2×10^5/mL in triplicate. Proliferation of shRNA-transduced T-ALL cells was followed by cell counting using the MACSQUANT cytometer (gated on live cells). Flow-cytometric cell cycle analysis was performed by staining DNA content of T-ALL cell lines using DAPI. SupT1 cells were also analyzed with EdU-DAPI staining to precisely define the percentage of cells at the G0/G1 phase. […] Cells were washed with PBS and fixed with PBS-4% PFA for 10 minutes at room temperature. After permeabilization, EdU incorporation was detected following the manufacturer's instructions (Click-iT, invitrogen) and total DNA content was measured using DAPI.

Series [8] relates to SupT1, HPB-ALL, TALL1 and DND41. Briefly: Cell count proliferation assay of T-ALL cell lines. The settings on record: shRNA knockdown. In kind it is cell-based, human. As for the experimental part:
as §1

For another series, the system named is SupT1 xenograft tumor. Description: Subcutaneous xenograft tumor model. In kind it is in vivo. The following applies: SupT1 cells expressing shRNA, SCID mice. As to the method:
Female SCID mice (C.B.-17/IcrHan™Hsd-Prkdcscid) were obtained from Harlan Laboratories (Gannat, France). Animals were maintained in specific pathogen-free animal housing at the Center for Exploration and Experimental Functional Research (CERFE, Evry, France) animal facility. […] 72 hours post-infection, cells were selected with 2 μg/mL puromycin for 72 hours. At this point, the cells were maintained in fresh media for 2 days prior to injection into animals. Prior injection, cells were washed and resuspended in DMEM: 50% Matrigel (BD Pharmingen). 5×10^6 cells […] were injected to each mouse by subcutaneous route in the right flank (n=5 per group). Tumor volume was evaluated by measuring tumor diameters, with a calliper, three times a week during the follow-up period (23 days). The formula TV (mm^3)=[length (mm)×width (mm)2]/2 was used, where the length and the width are the longest and the shortest diameters of the tumor, respectively.

For series [9], the system named is Notch-responsive genes in SupT1 cells. Briefly: Notch-responsive gene expression in GSI-treated SupT1 cells.
In another series the test system is monoamine oxidases. The following applies: compared with TCP; cited from earlier work.

Consider `N[C@@H]1C[C@H]1c1ccccc1` (racemic) [TCP, tranylcypromine], for which, in series [1], the “Notch-induced HES1 activation” value is on record as “reduced HES1 activation”. Moreover, the “HES1, HEY1 and DTX1 expression” value in [2] is given as “increased”. For the same compound, the “ICN1-induced activation of the Notch-responsive reporter (p6XCBS-luc)” value in series [3] was “impaired”.
Turning to `C[C@H](NC(=O)Cc1cc(F)cc(F)c1)C(=O)N[C@H]1N=C(c2ccccc2)c2ccccc2N(C)C1=O` [GSI], in [4] (SupT1, GSI 500 nM, 8 hours), the “MAML1 association with CSL, LSD1, PB1 and BRG1” value is on record as “severely altered”; the “binding of PHF8 and AF4p12 to MAML1” value is “only marginally reduced”. In addition, the “LSD1 binding to endogenous MAML1 and ICN1” value in series [4] (SupT1 cells treated with DMSO or GSI) was “strongly reduced”. In addition, the “RNAPII recruitment to Notch-target genes” value in series [5] is reported as “impaired”. Further, in [6] (SupT1), the “H3K27me2 mark at IL7R and DTX1 loci” value is “increase”. In series [6] (SupT1, ICN1-binding sites), the “CSL and LSD1 binding” value was “did not significantly affect”; the “ICN1 and MAML1 on chromatin” value is reported as “released”; the “recruitment of PBAF, PHF8 and AF4p12” value was “reduced”.
Consider “PHF8 shRNA: shRNA targeting PHF8, SEQ ID NO: 1; pSUPER retroviral vector (GCTTCATGATCGAGTGTGACA)”, for which the “Notch-mediated expression of c-MYC” value in series [7] (shRNA knockdown) is recorded as “suppressed”. For the same compound, the “cell-cycle progression in MOLT4 and H9” value in the series with T-ALL cell lines (Notch-independent T-ALL cell lines) is “did not significantly affect”. For the same compound, in the series on T-ALL cell lines, the “cell cycle in NOTCH1-dependent T-ALL cells” value is reported as “G0/G1 cell-cycle arrest”. Besides, the proliferation entry in [8] was “marked reduction”. For the same compound, the tumor establishment entry with SupT1 xenograft tumor is “did not establish tumors”.
Consider `NC1CC1c1cc(F)cc(F)c1OCc1ccccc1` (stereo not shown) [S2101], for which the “Notch-target genes expression on LSD1 inhibitor treatment” value in series [7] is “dose-dependent repression”. Also, in series [9], the “expression of Notch-responsive genes” value is “depression of Notch-responsive genes” and the “expression of the control S14 gene” value is “not affected”. Moreover, the “Notch-induced HES1 activation” value in [1] is “reduced HES1 activation”. Moreover, the “HES1, HEY1 and DTX1 expression” value in series [2] is given as “increased”. In addition, the “effect on monoamine oxidases” value with monoamine oxidases was “much weaker effect”.
